The values that follow come from patent US9051572B2, “Modulators of Itch ubiquitinase activity” (RYBOQUIN COMPANY LIMITED, priority 2005, dated 2015).

Peptide text beside a SMILES is read from it. * marks the point of attachment. Cbz = O=C(OCc1ccccc1)*

Common to all, as to assay type: cell-based, human
Test [1] has as its system Itch. Kind of test: Western blot of endogenous Itch after DNA damaging agents in Saos-2 cells. The conditions noted are these: 24 and 48 hours, 2 μM doxorubicin, 15 μM etoposide, 5 μM cisplatin. As to the method: (§1) FIG. 7 Itch is down regulated by DNA damaging agents. Saos-2 cells were treated with 2 μM doxorubicin (Doxo) for 24 or 48 hours then collected by trypsinization. Cells were lysed for western blotting (A) and half of the cells were ethanol fixed for apoptosis analysis (B). Western blots were performed with either anti-Itch (upper panel) or anti-p73 (lower panel) antibodies. Blots were stripped and re-probed with anti Lamin B antibody to show equal loading. Apoptosis was evaluated by flow cytometric analysis of PI stained cells. Non-treated controls (N.T.) are shown. H1299 cells transfected with HA-TAp73 ? (Con) are loaded as a control for p73 western blot.
(D) Western blot using anti-Itch antibody on Saos-2 cells treated for 24 and 48 hours with either 15 μM etoposide (Etopo) or 5 μM cisplatin (Cisp). Non-treated control cells are also shown (N.T.). Blots were stripped and re-probed with anti p73 antibody and Lamin B antibody to show equal loading.
Proteins were separated on SDS-PAGE and blotted onto nitrocellulose membranes. Filters were blocked with TBST 5% non-fat dry milk and incubated with primary antibodies for 2 hrs at room temperature (RT). Filters were incubated for 1 hour at RT using the appropriate horseradish peroxidase-conjugated secondary antibody (rabbit and mouse BioRad; goat Santa Cruz). Detection was performed with the enhanced chemiluminescence Supersignal West Pico (Pierce). […] Endogenous Itch was detected with a mouse monoclonal antibody (BD Bioscience), Actin (sc-1615) polyclonal goat antibody (Santa Cruz), Lamin B (sc-6217) goat polyclonal antibody (Santa Cruz), Hsp70 (sc-1060) polyclonal goat antibody (Santa Cruz), β-Tubulin (sc-9104) polyclonal rabbit antibody (Santa Cruz), p21 (sc-756) polyclonal rabbit antibody (Santa Cruz), p53 DO-1 and Pab1801 monoclonal mouse antibodies (Santa Cruz). c-Myc-tagged constructs were detected or immuno-precipitated with the sc-40 monoclonal mouse antibody (Santa Cruz), HA-tagged with the sc-805 polyclonal rabbit antibody (Santa Cruz), and the Flag-tagged constructs with the M2 monoclonal mouse antibody (Sigma).

The subject of test [2] is TAp73α. In words: Steady state protein levels analysis with proteasome inhibitor in Hek293 cells co-transfected with Itch. The note with it: MG132 50 μM, 40 min. As to the method: The concentration of TAp73α, TAp73 ? and p53 was monitored by Western blotting. […] 25 μg of cell lysates were subjected to Western blotting. p73 proteins were detected by an anti-HA antibody. The same blots were re-probed with anti Myc antibody to detect Itch and with anti-Actin antibody to show equal loading.

Test [3] has as its system TAp73. Kind of test: Western blot of endogenous p73 after doxorubicin in Saos-2 cells. The note with it: 2 μM doxorubicin, 24 or 48 hours. As to the method: as §1
Proteins were separated on SDS-PAGE and blotted onto nitrocellulose membranes. Filters were blocked with TBST 5% non-fat dry milk and incubated with primary antibodies for 2 hrs at room temperature (RT). Filters were incubated for 1 hour at RT using the appropriate horseradish peroxidase-conjugated secondary antibody (rabbit and mouse BioRad; goat Santa Cruz). Detection was performed with the enhanced chemiluminescence Supersignal West Pico (Pierce). Anti-p73 is a monoclonal antibody (ER15) (Neomarkers). […]

For test [4], the system named is Saos-2 cells. Kind of test: Apoptosis by flow cytometric analysis of PI stained cells after doxorubicin. The note with it: 2 μM doxorubicin, 24 or 48 hours. The method, then: as §1
Human embryonal kidney cells (Hek293), HeLa cells and MEFs were grown in Dulbecco's modified Eagle medium (DMEM) (GibcoBRL); the human lung carcinoma cells H1299 and the human osteosarcoma cells Saos-2 were cultured in RPMI (GibcoBRL). MEF Itch−/− cells were prepared from Itch−/− mice (Y—C-Liu) or they were generous gift from Neil Copeland, Lynda Matesic, Nancy Jenkins. All media were supplemented with 10% (v/v) fetal bovine serum (FBS) (GibcoBRL). Saos-2-TAp73 ? were a kind gift of K. Vousden (Nakano, 2000). Saos-2-ΔNp73 ? were generated as described before (Maisse et al., 2004). […] Apoptosis was analysed by flow cytometric evaluation of DNA fragmentation.
Background: In flow cytometry, cells or beads pass a laser one at a time.

As for `N.N.[Cl][Pt][Cl]` [cisplatin], the “endogenous Itch protein levels” value in test [1] was “dramatic reduction in Itch protein levels”.

`CC(C)C[C@@H](C=O)NC(=O)[C@H](CC(C)C)NC(=O)[C@H](CC(C)C)NC(=O)OCc1ccccc1` [MG132] (Cbz-Leu-Leu-Leu-aldehyde): in test [2], the “steady state levels of TAp73α in presence of Itch” value is reported as “blocks the Itch-mediated TAp73α degradation”.

Consider `COc1cc([C@@H]2c3cc4c(cc3[C@@H](O[C@@H]3O[C@@H]5CO[C@@H](C)O[C@H]5[C@H](O)[C@H]3O)[C@H]3COC(=O)[C@H]23)OCO4)cc(OC)c1O` [etoposide], for which the “endogenous Itch protein levels” value in test [1] is reported as “dramatic reduction in Itch protein levels”.

`COc1cccc2c1C(=O)c1c(O)c3c(c(O)c1C2=O)C[C@@](O)(C(=O)CO)C[C@@H]3O[C@H]1C[C@H](N)[C@H](O)[C@H](C)O1` [doxorubicin]: the “endogenous Itch protein levels” value in test [1] is on record as “down-regulated”. Also, the “endogenous TAp73 levels” value in test [3] is listed as “increase in endogenous TAp73 levels”. Also, the apoptosis result in test [4] is “increase in apoptosis”.
